Test results: US11141475B2, “Inactivating pathogens and producing highly immunogenic inactivated vaccines using a dual oxidation process” (priority 2016, dated 2021)

Columns and labels:
[1] = test system: CHIKV E1 and E2 structural proteins; test: CHIKV-specific sandwich ELISA with two neutralizing monoclonal antibodies (antigenicity); format: binding, Chikungunya virus; settings: for CHIKV antigenicity (retained neutralizing epitopes, ELISA): treated 20 hours at room temperature (FIG. 19A)
C. coli [2] = test: Campylobacter morphology after inactivation (Gram safranin stain); set-up: species or system Campylobacter coli; settings: 3% H2O2 for 5 hours at room temperature, or dual oxidation
[3] = test system: DENV4 envelope structural protein; test: DENV-specific sandwich ELISA on treated DENV4 (antigenicity); format: binding, dengue virus serotype 4; settings: for DENV4 antigenicity (retained neutralizing epitopes, ELISA): treated 20 hours at room temperature (FIG. 19B); for DENV4 antigenicity in the dual-oxidation system (ELISA): H2O2 0.01%, CuCl2 1 μM, each compound 10 μM, 20 hrs post-inactivation
DENV2 = DENV2 inactivation kinetics at increasing total viral protein (PFU assay); format: cell-based, dengue virus 2; settings: 3% H2O2, or 0.01% H2O2 and 1 μM CuCl2, room temperature
[4] = test system: YFV envelope structural protein
[5] = test system: DENV3 envelope structural protein; test: DENV-specific sandwich ELISA on treated DENV3 (antigenicity); format: binding, dengue virus 3; settings: H2O2 0.01%, range of CuCl2 and FeCl3 concentrations
DENV4 = format: cell-based, dengue virus serotype 4
CHIKV = format: cell-based, Chikungunya virus
C. coli [6] = test: Campylobacter coli inactivation kinetics (viable bacteria, CFU/mL); format: cell-based; settings: added to H2O2 0.01%, CuCl2 2 μM; MZ 20 μM
vaccinia virus = format: cell-based; settings: added to H2O2 0.002%, CuCl2 1 μM; MZ 10 μM; PBS pH 7.5
Listeria monocytogenes = Listeria monocytogenes inactivation (CFU/mL); format: cell-based; settings: added to H2O2 0.10%, CuCl2 10 μM; MZ 100 μM
Shigella dysenteriae = Shigella dysenteriae inactivation (CFU/mL); format: cell-based; settings: added to H2O2 0.10%, CuCl2 10 μM; MZ 100 μM
smallpox = settings: in vivo; cited from earlier work
[7] = human, in vivo, 152 mg/kg; cited from earlier work

Structure (SMILES): OO [3% H2O2, hydrogen peroxide]
- antigenicity, in vitro potency testing using envelope-specific MAbs ([1]; 3% H2O2 under standard conditions (7 hours, room temperature)): nearly complete loss of antigenicity
- CHIKV antigenicity (retained neutralizing epitopes, ELISA) [1]: loss of neutralizing epitopes
- bacterial morphology after inactivation (C. coli [2]): substantially damaged with clear changes in morphology
- DENV4 antigenicity (retained neutralizing epitopes, ELISA) [3]: loss of neutralizing epitopes
- dependence of virus inactivation kinetics on total viral protein concentration (DENV2): protein concentration-independent
- YFV antigenicity (neutralizing epitopes) [4]: severe damage to neutralizing epitopes

Structure (SMILES): [Cl][Fe]([Cl])[Cl] [FeCl3]
- DENV3 antigenicity with combinations of CuCl2 and FeCl3 (ELISA) [5]: enhanced antigenicity

Structure (SMILES): CCCN1C(=O)C(=NNC(N)=S)c2ccccc21 [N-propylisatin β-thiosemicarbazone]
- DENV4 inactivation in the dual-oxidation system (plaque assay) (DENV4): enhanced rates of inactivation
- DENV4 antigenicity in the dual-oxidation system (ELISA) [3]: superior antigenicity

Structure (SMILES): NC(=S)NN=C1C(=O)Nc2ccccc21 [isatin β-thiosemicarbazone]
- DENV4 inactivation in the dual-oxidation system (plaque assay) (DENV4): enhanced rates of inactivation
- DENV4 antigenicity in the dual-oxidation system (ELISA) [3]: superior antigenicity

Structure (SMILES): O=C1Nc2ccccc2C1=O [isatin]
- DENV4 inactivation in the dual-oxidation system (plaque assay) (DENV4): do not appear to increase the rate of inactivation
- DENV4 antigenicity in the dual-oxidation system (ELISA) [3]: protection of protein antigens from oxidative damage

Structure (SMILES): CN1C(=O)/C(=N\NC(N)=S)c2ccccc21 [methisazone, N-methylisatin β-thiosemicarbazone]
- CHIKV retained antigenicity with increasing methisazone relative to the transition metal ([1]; H2O2 0.02%, CuCl2 1 μM, ELISA at 20 hrs): concomitant improvements
- CHIKV antigenicity (retained neutralizing epitopes, ELISA) [1]: maintained or significantly improved antigenicity
- CHIKV inactivation in the absence of copper (CHIKV): minimal impact
- CHIKV inactivation rates with increasing methisazone relative to the transition metal (CHIKV): concomitant improvements
- increase of the rate of inactivation vs dual oxidation alone, CHIKV (CHIKV): 10- to 20 fold
- rate of dual-oxidation-based inactivation, CHIKV (CHIKV): substantially increase the rate
- inactivation rate of Campylobacter coli (C. coli [6]): substantially enhanced inactivation rates
- rate of dual-oxidation-based inactivation, vaccinia virus (vaccinia virus): substantially increase the rate
- DENV4 inactivation in the absence of copper (DENV4): minimal impact
- increase of the rate of inactivation vs dual oxidation alone, DENV4 (DENV4): 10- to 20 fold
- rate of dual-oxidation-based inactivation, DENV4 (DENV4): substantially increase the rate
- DENV4 antigenicity (retained neutralizing epitopes, ELISA) [3]: maintained or significantly improved antigenicity
- inactivation rate of Listeria monocytogenes (Listeria monocytogenes): substantially enhanced inactivation rates
- inactivation rate of Shigella dysenteriae (Shigella dysenteriae): substantially enhanced inactivation rates
- close contacts who developed mild smallpox (smallpox): 0.27%
- close contacts who developed mild smallpox (cases/contacts) (smallpox): 3/1101
- deaths among close contacts (smallpox): no deaths
- non-vaccinated subjects who contracted smallpox (smallpox): 2%
- non-vaccinated subjects who contracted smallpox (cases/subjects) (smallpox): 2/102
- serious adverse events [7]: lack of serious adverse events

Structure (SMILES): NNC(N)=O [semicarbazide]
- DENV4 inactivation in the dual-oxidation system (plaque assay) (DENV4): do not appear to increase the rate of inactivation
- DENV4 antigenicity in the dual-oxidation system (ELISA) [3]: protection of protein antigens from oxidative damage

Structure (SMILES): NNC(N)=S [thiosemicarbazide]
- DENV4 inactivation in the dual-oxidation system (plaque assay) (DENV4): enhancement of inactivation
- DENV4 antigenicity in the dual-oxidation system (ELISA) [3]: superior antigenicity
